In general, Km refers to the concentration of substrate that gives half-maximal velocity. As usually defined, the IC50 is the midpoint of a concentration-inhibition curve. Broadly, the Ki is the dissociation constant of the complex between target and ligand, obtained from inhibition or displacement.

Where two headings read alike, the source gives them in different places. Where only a bound is given, the exact number is not on record here.

In data set [1] the test system is UGT1A10. Also noted: method as in PMID 17628876. The following applies: cited from earlier work.
For data set [2], the target named is T1, UGT1A1 (Homo sapiens, UniProt P22309).
T1 sequence (P22309 26-533): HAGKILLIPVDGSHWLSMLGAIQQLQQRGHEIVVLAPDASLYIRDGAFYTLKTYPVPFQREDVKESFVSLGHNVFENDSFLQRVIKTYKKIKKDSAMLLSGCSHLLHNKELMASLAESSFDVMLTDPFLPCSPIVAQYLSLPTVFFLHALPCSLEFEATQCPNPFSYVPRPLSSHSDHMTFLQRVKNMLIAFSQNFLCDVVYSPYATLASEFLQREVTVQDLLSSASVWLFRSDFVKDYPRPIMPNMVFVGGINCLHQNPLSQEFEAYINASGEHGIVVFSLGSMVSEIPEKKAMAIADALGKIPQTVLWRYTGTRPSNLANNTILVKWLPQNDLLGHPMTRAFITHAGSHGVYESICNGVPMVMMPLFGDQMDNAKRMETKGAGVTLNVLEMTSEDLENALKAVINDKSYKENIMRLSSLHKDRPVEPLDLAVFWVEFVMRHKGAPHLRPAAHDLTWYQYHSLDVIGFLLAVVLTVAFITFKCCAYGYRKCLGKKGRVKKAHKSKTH
Description: DMC-O-glucuronidation kinetics by recombinant UGT1A1. The data set is classed as in vitro ADME. Also on record: purchased Corning Biosciences. The following applies: for CLint: Vmax/Km; for Vmax: UGT1A1, Michaelis-Menten model. On the procedure:
(§1) The glucuronidation assay was performed as previously described. Briefly, alamethicin (22 μg/mL), D-saccharic-1,4-lactone (4.4 mM), MgCl2 (0.88 mM), UGT1A1 (1.0 mg/mL) or HeLa1A1 cell lysates (2.3 mg/mL) and DMC (0.5 to 40 μM) were mixed in a 50 mM Tris buffer (pH 7.4). After a preincubation at 37°C for 5 min, UDPGA (3.5 mM) was added to the incubation system, and the mixture was further incubated. After 30 min, the reactions were terminated by the addition of ice-cold acetonitrile (200 μL). The mixed samples were centrifuged at 13,800 x g for 10 min, and the supernatant was analyzed using UHPLC.
(§2) The best model was selected based on a visual inspection of the Eadie-Hofstee plots. Briefly, the rates (V) of glucuronide formation at various substrate concentrations (S) were fitted based on the standard Eq (3). Km represents the Michaelis-Menten constant and Vmax represents the maximum rate of glucuronidation. The intrinsic clearance (CLint) was derived from Vmax/Km. Model fitting and parameter estimation were performed by GraphPad Prism V5 software (SanDiego, CA, USA).

On the set-up of data set [3]: method as in PMID 24480327. Particulars: 2 g curcuminoids incl. 12% DMC orally, two healthy volunteers; below detection limit; cited from earlier work.
The target of data set [4] is T2, HeLa1A1 cell lysate (Homo sapiens, UniProt P22309).
T2 construct: expressed in transfected cells; host or cells: HeLa cells stably overexpressing UGT1A1 (HeLa1A1), used as cell lysate
T2 sequence (P22309 26-533): T1 sequence (P22309 26-533)
Kind of data set: DMC-O-glucuronidation kinetics by HeLa1A1 cell lysate. In kind it is in vitro ADME. The following applies: for Km / Vmax: Michaelis-Menten model; for CLint: Vmax/Km. On the procedure: HeLa1A1 cells were grown in 10-cm dishes for 72 h and then washed and harvested in 50 mM Tris buffer (pH 7.4). The collected cells were sonicated using […] in an ice-cold water bath (4°C). Subsequently, the cell lysates were centrifuged at 13,800 x g for 10 min (4°C). The supernatant was collected for use in the UGT glucuronidation activity assay. The protein concentration was determined using the bicinchoninic acid (BCA) assay (Beyotime, Shanghai, China). Due to the thermal stability of UGT1A1, the glucuronidation activity of UGT1A1 was not affected during sonication process.
as §1, §2

The subject of data set [5] is CYP2C9. Also on record: method as in PMID 21287405. Particulars: human CYP2C9; cited from earlier work.
Data set [6] deals with UGT1A8. Also on record: method as in PMID 17628876. Particulars: cited from earlier work.
The subject of data set [7] is CYP1A2. Also noted: method as in PMID 21287405. The following applies: human CYP1A2; cited from earlier work.
Data set [8] has as its system UGTs. Also on record: method as in PMID 18480186. The following applies: cited from earlier work.
The subject of data set [9] is SULTs. Also on record: method as in PMID 18480186. The following applies: cited from earlier work.
The subject of data set [10] is UGT1A3. Also noted: method as in PMID 17628876. Particulars: cited from earlier work.
Data set [11] has as its system CYP3As. Also noted: method as in PMID 18480186. The following applies: cited from earlier work.
In data set [12] the test system is UGT2B7. Also on record: method as in PMID 17628876. The following applies: cited from earlier work.
The subject of data set [13] is UGT1A1. Also on record: method as in PMID 17628876. Particulars: cited from earlier work.
For data set [14], the system named is CYP3A4. Also on record: method as in PMID 21287405. The following applies: human CYP3A4; cited from earlier work.
The test system of data set [15] is HeLa1A1 cells. Description: Toxicity of DMC toward HeLa1A1 cells during excretion experiments. In kind it is cell-based, human. The following applies: DMC 4 μM.
The subject of data set [16] is human intestinal P-glycoprotein (P-gp). Also on record: method as in PMID 19879740. Particulars: cited from earlier work.
The test system of data set [17] is 2C9. Also noted: method as in PMID 18480186. Particulars: cited from earlier work.
Details of data set [18]: method as in earlier work. The following applies: cited from earlier work.
Data set [19] relates to BCRP transporter. Also noted: method as in PMID 25587128. The following applies: cited from earlier work.
Data set [20] has as its target T3, BCRP (Homo sapiens, UniProt Q9UNQ0).
T3 sequence (Q9UNQ0 1-655): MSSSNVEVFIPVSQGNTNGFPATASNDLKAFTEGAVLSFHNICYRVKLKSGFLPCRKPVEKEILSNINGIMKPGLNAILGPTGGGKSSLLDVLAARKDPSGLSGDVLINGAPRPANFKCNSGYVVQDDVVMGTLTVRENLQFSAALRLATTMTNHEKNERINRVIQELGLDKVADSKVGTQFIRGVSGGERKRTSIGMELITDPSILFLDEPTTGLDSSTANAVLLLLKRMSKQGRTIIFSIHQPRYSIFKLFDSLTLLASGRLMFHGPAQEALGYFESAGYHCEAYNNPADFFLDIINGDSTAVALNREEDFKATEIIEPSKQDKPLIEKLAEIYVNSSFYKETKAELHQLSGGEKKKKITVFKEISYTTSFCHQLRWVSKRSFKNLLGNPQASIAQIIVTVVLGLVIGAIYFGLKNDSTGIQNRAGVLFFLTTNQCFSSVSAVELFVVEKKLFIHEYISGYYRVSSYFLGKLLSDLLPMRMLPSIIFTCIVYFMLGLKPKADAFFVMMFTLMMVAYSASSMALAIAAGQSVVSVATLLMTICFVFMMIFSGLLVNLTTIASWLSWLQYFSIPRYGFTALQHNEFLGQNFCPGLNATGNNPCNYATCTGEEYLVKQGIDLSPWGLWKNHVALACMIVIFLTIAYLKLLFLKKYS
Also on record: method as in PMID 28925930. The following applies: following curcumin pretreatment; subjects with ABCG2 421CC genotype; cited from earlier work.

The subject of data set [21] is MRP1. Also on record: method as in PMID 26502886. The following applies: MRP1-mediated transport; cited from earlier work.
In data set [22] the test system is MRP2. Also on record: method as in PMID 26502886. Particulars: MRP2-mediated transport; cited from earlier work.
[23] abbreviates: formation of G1, HeLa1A1 cell lysate.
[24] abbreviates: formation of G2, HeLa1A1 cell lysate.

Demethoxycurcumin [DMC]: the “catalytic activity (glucuronidation of DMC)” value was “less than 1100 pmol/min/mg” in data set [1]; “less than 1100 pmol/min/mg” in data set [6]; “less than 1100 pmol/min/mg” in [10]; “less than 1100 pmol/min/mg” in data set [12]; “approximately 1600 pmol/min/mg” in data set [13]. In addition, the Km amounted to 4.5 ± 0.9 µM in [2] (formation of G1, UGT1A1, Michaelis-Menten model); 2.7 ± 0.5 µM in [2] (formation of G2, UGT1A1, Michaelis-Menten model); 5 ± 1.3 µM in [4] (setting [23]); 3.8 ± 0.9 µM in data set [4] (setting [24]). Further, the CLint in [2] (formation of G1, UGT1A1) is 225.9 ± 47.3 µL/min/mg; in data set [2] (formation of G2, UGT1A1), 212.6 ± 38.3 µL/min/mg; in data set [4] (setting [23]), 53.0±14.5 ( ^***) μL/min/mg; in data set [4] (setting [24]), 43.9±10.4 (^###) μL/min/mg. Also, the Vmax in data set [2] (formation of G1 from DMC (0.5-40 μM)) was 1006.0 ± 62.8 pmol/min/mg; in data set [2] (formation of G2 from DMC (0.5-40 μM)), 576.1 ± 27.0 pmol/min/mg; in [4] (setting [23]) it was 264.5±22.3 ( ^***) pmol/min/mg; in [4] (setting [24]) it was 167.4±11.3 (^###) pmol/min/mg. In data set [3], the DMC concentration is recorded as less than 2.0 ng/mL. Also, the half-maximal inhibitory concentration (IC50) in [5] is 1.4 µM; in [7], 34 µM; in [8], 13.9 µM; in [9], 1.7 µM; in data set [11], 31.5 µM; in data set [14], 7 µM. The IC50 in data set [17] was 8.8 µM. Further, the “toxicity toward HeLa1A1 cells” value in data set [15] is given as “did not exert significant toxicity”. Besides, the “inhibition of P-gp activities” value in [16] is recorded as “capable of inhibiting”. In addition, the “tissue distribution of free DMC” value is on record as roughly 140 ng/g in [18] (heart); roughly 150000 ng/g in data set [18] (intestine); roughly 80 ng/g in data set [18] (kidney); “approximately 120 ng/g” in data set [18] (liver); roughly 50 ng/g in [18] (spleen).
Turning to `COc1cc(/C=C/C(=O)CC(=O)/C=C/c2ccc(O)c(OC)c2)ccc1O` [curcumin], in data set [19], the inhibitory constant (Ki) was 0.7 µM. In addition, the “increase in AUC of orally administered salazosulfapyridine (SASP)” value in data set [20] is 3.2 fold. Besides, the IC50 is 15 µM in data set [21] and 5 µM in data set [22].

These data come from PMC6544300, “Mechanism of the efflux transport of demethoxycurcumin-O-glucuronides in HeLa cells stably transfected with UDP-glucuronosyltransferase 1A1” (PLoS ONE, 2019).
